Some test systems named below: 786-0 renal; COLO 205 colon; LOX IMVI melanoma; MDA-MB-435; NCI/ADR-RES ovarian; OVCAR-5 ovarian; SF-295 CNS; SK-MEL-28 melanoma; SN12C renal; SNB-19 CNS; CCRF-CEM leukemia.
Common to all, as to assay: NCI tumour cell line growth inhibition, 48 h

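Step 1: Grow cells in 96-well plates. Step 2: Expose to compound for 48 hours at 5 concentrations. Step 3: Interpolate endpoints linearly; if unreached, use highest concentration. TGI: concentration producing complete growth inhibition.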

Consider `COc1cc2c(cc1OCCCCOc1cc3c(cc1OC)C(=O)N1CCC[C@H]1C(=O)N3)N=C[C@@H]1CCCN1C2=O`, for which the TGI stood at 39.2 µM with 786-0 renal; 7.41 µM in the experiment on COLO 205 colon; 4.22 µM with LOX IMVI melanoma; 14.4 µM with MDA-MB-435; 29 µM with NCI/ADR-RES ovarian; 33 µM in the experiment with OVCAR-5 ovarian. For the same compound, the TGI in the experiment on SF-295 CNS is 26 µM; with SK-MEL-28 melanoma, 30.8 µM; in the experiment with SN12C renal, 21.4 µM; with SNB-19 CNS it was 20.5 µM.

Take `COc1ccccc1/C=C1\NC(=S)N(/C=C2\C(=O)Oc3ccccc3C2=O)C1=O`: the TGI with 786-0 renal was greater than 100 µM; with CCRF-CEM leukemia it was 76.5 µM; with COLO 205 colon, greater than 100 µM; in the experiment with LOX IMVI melanoma, greater than 100 µM; with MDA-MB-435, greater than 100 µM; in the experiment on NCI/ADR-RES ovarian, greater than 100 µM. The TGI with OVCAR-5 ovarian, in the experiment on SF-295 CNS, in the experiment on SK-MEL-28 melanoma, with SN12C renal and in the experiment with SNB-19 CNS was greater than 100 µM in each case.

With `Brc1ccc2c(c1)-c1nc3nc4c(cc3cc1CC2)CCc1ccc(Br)cc1-4`, the TGI in the experiment on 786-0 renal, with COLO 205 colon, with LOX IMVI melanoma, with MDA-MB-435, in the experiment on NCI/ADR-RES ovarian and in the experiment on OVCAR-5 ovarian was greater than 100 µM each time. The TGI in the experiment with SF-295 CNS, in the experiment with SK-MEL-28 melanoma, in the experiment with SN12C renal and in the experiment with SNB-19 CNS was greater than 100 µM throughout.

Regarding `CCN(CC)CCNc1ccc2nnn3c4ccc(O)cc4c(=O)c1c23`, the TGI in the experiment with 786-0 renal stood at 15.6 µM; in the experiment on CCRF-CEM leukemia, 31.6 µM; in the experiment with COLO 205 colon, 16.9 µM; in the experiment on LOX IMVI melanoma, 4.05 µM; in the experiment on MDA-MB-435, 17.4 µM; in the experiment with NCI/ADR-RES ovarian, 12.2 µM. The TGI in the experiment on OVCAR-5 ovarian is 22.4 µM; with SF-295 CNS, 17.8 µM; in the experiment on SK-MEL-28 melanoma, 24.2 µM; in the experiment on SN12C renal, 17.8 µM; in the experiment with SNB-19 CNS it was 22.2 µM.

For the compound `CCOC1Oc2ccccc2-c2nc(SC)ncc21` (stereo not drawn), the TGI in the experiment with 786-0 renal, in the experiment with CCRF-CEM leukemia, with COLO 205 colon, in the experiment with LOX IMVI melanoma, with MDA-MB-435 and in the experiment on NCI/ADR-RES ovarian was greater than 100 µM in each case. The TGI with OVCAR-5 ovarian, in the experiment on SF-295 CNS, with SN12C renal and in the experiment on SNB-19 CNS was greater than 100 µM throughout.

Take `O=C1CC(=O)NC(=NNS(=O)(=O)c2ccccc2)N1`: the TGI in the experiment on 786-0 renal, in the experiment with CCRF-CEM leukemia, in the experiment with COLO 205 colon, in the experiment on MDA-MB-435, in the experiment on NCI/ADR-RES ovarian and in the experiment on OVCAR-5 ovarian was greater than 100 µM in each case. Besides, the TGI in the experiment with SF-295 CNS, with SK-MEL-28 melanoma, with SN12C renal and with SNB-19 CNS was greater than 100 µM throughout.

With `Cc1ccc2nc(C=Nc3ccc(Cl)cc3)cc(C)c2c1`, the TGI worked out at 35.3 µM in the experiment on 786-0 renal; 13.1 µM in the experiment on CCRF-CEM leukemia; 6.08 µM in the experiment on COLO 205 colon; 20.1 µM in the experiment with LOX IMVI melanoma; 24.1 µM with MDA-MB-435; 32.1 µM in the experiment with NCI/ADR-RES ovarian. The TGI with OVCAR-5 ovarian was greater than 100 µM; with SF-295 CNS, 19.3 µM; with SK-MEL-28 melanoma, 36.4 µM; with SN12C renal it was 29.4 µM; in the experiment on SNB-19 CNS it was greater than 100 µM.

Regarding `O=c1c2cc(Cl)cc(Cl)c2oc2nc3n(c(=O)c12)CCCS3`, the TGI in the experiment on 786-0 renal, in the experiment with CCRF-CEM leukemia, with COLO 205 colon, in the experiment on MDA-MB-435, with NCI/ADR-RES ovarian and in the experiment on OVCAR-5 ovarian was greater than 100 µM each time. Besides, the TGI in the experiment with SF-295 CNS, in the experiment on SK-MEL-28 melanoma, in the experiment on SN12C renal and in the experiment with SNB-19 CNS was greater than 100 µM in each case.

`COc1ccc2cc(-c3nc(N)nc(N4N=C(C)CC4(C)C)n3)c(=N)oc2c1`: the TGI was 36.3 µM with 786-0 renal; 41.4 µM in the experiment with CCRF-CEM leukemia; 30.8 µM in the experiment with COLO 205 colon; 42.1 µM with MDA-MB-435; greater than 100 µM with NCI/ADR-RES ovarian; 41.3 µM in the experiment on OVCAR-5 ovarian. Besides, the TGI with SF-295 CNS amounted to 33.2 µM; in the experiment on SK-MEL-28 melanoma it was 31.8 µM; in the experiment with SN12C renal, 51.7 µM; in the experiment on SNB-19 CNS it was 40.1 µM.

Consider `COc1ccc(C2CC3(c4ccccc4)ON=C(c4ccccc4)N3c3ccccc3S2)cc1` (stereo not drawn), for which the TGI in the experiment with 786-0 renal, with CCRF-CEM leukemia, with COLO 205 colon, in the experiment on LOX IMVI melanoma, in the experiment on MDA-MB-435 and in the experiment on NCI/ADR-RES ovarian was greater than 100 µM each time. Also, the TGI with OVCAR-5 ovarian, in the experiment with SF-295 CNS, with SK-MEL-28 melanoma and with SN12C renal was greater than 100 µM in each case.

With `COc1ccc2[nH]c3c(C)c4ccnc(NCCCN(C)CCCNc5ccc6ncn7c8ccccc8c(=O)c5c67)c4c(C)c3c2c1`, the TGI in the experiment with CCRF-CEM leukemia turned out to be 5.62 µM; in the experiment on COLO 205 colon, 4.36 µM; in the experiment on LOX IMVI melanoma, 0.606 µM; in the experiment on MDA-MB-435 it was 4.45 µM; in the experiment with NCI/ADR-RES ovarian, 4.55 µM; in the experiment with OVCAR-5 ovarian, 5.2 µM. The TGI in the experiment on SF-295 CNS worked out at 1.85 µM; in the experiment on SK-MEL-28 melanoma, 21.9 µM; in the experiment with SN12C renal, 3.38 µM; with SNB-19 CNS, 3.42 µM.

Take `O=c1cn[nH]c(=S)n1/N=C/c1c[nH]c2ccccc12`: the TGI in the experiment on 786-0 renal was greater than 100 µM; in the experiment on CCRF-CEM leukemia, 30.3 µM; in the experiment on COLO 205 colon it was greater than 100 µM; with LOX IMVI melanoma it was 93.2 µM; in the experiment on MDA-MB-435, greater than 100 µM; in the experiment with NCI/ADR-RES ovarian, greater than 100 µM. Also, the TGI with OVCAR-5 ovarian, in the experiment with SF-295 CNS, in the experiment with SK-MEL-28 melanoma and with SNB-19 CNS was greater than 100 µM in each case.

Turning to `COc1cccc(N(CN2C(=O)CCC2C(=O)O)C(C)=O)c1` (stereo not drawn), the TGI in the experiment on 786-0 renal, in the experiment on COLO 205 colon, with LOX IMVI melanoma, in the experiment with MDA-MB-435, in the experiment with NCI/ADR-RES ovarian and in the experiment on OVCAR-5 ovarian was greater than 100 µM in each case. In addition, the TGI in the experiment with SF-295 CNS, in the experiment with SK-MEL-28 melanoma, in the experiment on SN12C renal and in the experiment with SNB-19 CNS was greater than 100 µM in each case.
